From article PMC7951137 (ACS chemical neuroscience, 2021) come the findings set out here.

Like-named read-outs stand apart in the source and are kept apart here. [ ]: non-standard residue; d: D form.

For test [1], the target named is T1, wildtype hMC4R (Homo sapiens, UniProt P32245). Nature of the test: cAMP AlphaScreen agonist / inverse agonist assay. The following applies: WT hMC4R; basal = signal at 10^−12 M. Type of test: cell-based.
The target in the next test is D189E hMC4R (Homo sapiens, UniProt P32245, D189E). Description: cAMP AlphaScreen agonist / inverse agonist assay. In kind it is cell-based. As to conditions: for Inverse agonist percent decrease from basal activity: D189E hMC4R. (Bead proximity is the source of the signal in Alpha formats.)
The target in a further test is D189N hMC4R (Homo sapiens, UniProt P32245, D189N). Nature of the test: cAMP AlphaScreen agonist / inverse agonist assay. In kind it is cell-based. The following applies: for Inverse agonist percent decrease from basal activity: D189N hMC4R.
Test [2] deals with T2, D189Q hMC4R (Homo sapiens, UniProt P32245, D189Q). Description: cAMP AlphaScreen agonist / inverse agonist assay. Type of test: cell-based. As to conditions: for Inverse agonist percent decrease from basal activity: D189Q hMC4R.
The target of the next test is D189S hMC4R (Homo sapiens, UniProt P32245, D189S). Description: cAMP AlphaScreen agonist / inverse agonist assay. Type of test: cell-based. As to conditions: for Inverse agonist percent decrease from basal activity: D189S hMC4R.
Test [3] has as its target T1, wildtype hMC4R. Description: cAMP AlphaScreen antagonist assay. In kind it is cell-based.
Test [4] addresses T2, D189Q hMC4R. Nature of the test: cAMP AlphaScreen antagonist assay. In kind it is cell-based.
For a further test, the target named is D189A hMC4R (Homo sapiens, UniProt P32245, D189A). Description: cAMP AlphaScreen antagonist assay. Type of test: cell-based.
The next test concerns the target D189K hMC4R (Homo sapiens, UniProt P32245, D189K). Nature of the test: cAMP AlphaScreen antagonist assay. In kind it is cell-based.
For test [5], the target named is T3, human melanocortin-4 receptor (hMC4R), wild type, N-terminal FLAG-tagged (human, UniProt P32245 1-332). Description: radioligand binding.
The target of test [6] is T3, human melanocortin-4 receptor (hMC4R), …. Nature of the test: radioligand binding. This is another data set of the same source.

T2 sequence (P32245 whole entry D189Q): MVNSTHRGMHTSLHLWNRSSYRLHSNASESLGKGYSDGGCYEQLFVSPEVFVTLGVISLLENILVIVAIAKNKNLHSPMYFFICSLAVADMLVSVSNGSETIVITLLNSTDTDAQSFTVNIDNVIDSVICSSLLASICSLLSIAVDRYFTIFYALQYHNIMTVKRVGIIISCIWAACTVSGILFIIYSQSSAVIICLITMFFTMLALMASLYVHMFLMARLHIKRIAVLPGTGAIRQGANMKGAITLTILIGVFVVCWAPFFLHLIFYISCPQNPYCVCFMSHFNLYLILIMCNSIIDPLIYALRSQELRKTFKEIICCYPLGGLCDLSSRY
Chain of D189S hMC4R (P32245 whole entry D189S): as the sequence (P32245 whole entry D189Q) above, with Q189S counted along it
Chain of D189E hMC4R (P32245 whole entry D189E): as the sequence (P32245 whole entry D189Q) above, with Q189E counted along it
Chain of D189A hMC4R (P32245 whole entry D189A): as the sequence (P32245 whole entry D189Q) above, with Q189A counted along it
Chain of D189N hMC4R (P32245 whole entry D189N): as the sequence (P32245 whole entry D189Q) above, with Q189N counted along it
Chain of D189K hMC4R (P32245 whole entry D189K): as the sequence (P32245 whole entry D189Q) above, with Q189K counted along it
T3 sequence (P32245 whole entry): as the sequence (P32245 whole entry D189Q) above, with Q189D counted along it
T1 sequence (P32245 whole entry): as the sequence (P32245 whole entry D189Q) above, with Q189D counted along it

Take `C[C@@H]1NC(=O)[C@H](CN)NC(=O)[C@H](Cc2ccccc2)NC(=O)[C@H](Cc2ccccc2)NC(=O)[C@H](CCCNC(=N)N)NC(=O)[C@@H]2CCCN2C(=O)[C@H]2CCCN2C(=O)[C@H](Cc2ccccc2)NC1=O` [MDE3–119-8c, c[Pro-Arg-Phe-Phe-Dap-Ala-Phe-DPro]]: the “Inverse agonist percent decrease from basal signal” value on wildtype hMC4R [1] is on record as −50%. Moreover, the “Inverse agonist percent decrease from basal activity” value on D189E hMC4R is given as −55%; on D189N hMC4R, −15%; on D189Q hMC4R [2], −45%; at D189S hMC4R, −35%.
The Kb is the equilibrium dissociation constant of an antagonist, usually derived from a functional assay. Read a high Kb as lower antagonist affinity. What is called EC50 is the concentration needed to bring the measured effect to its halfway point. Take `C[C@@H]1NC(=O)[C@H](CO)NC(=O)[C@H](Cc2ccccc2)NC(=O)[C@H](Cc2ccccc2)NC(=O)[C@H](CCCNC(=N)N)NC(=O)[C@@H]2CCCN2C(=O)[C@H]2CCCN2C(=O)[C@H](Cc2ccccc2)NC1=O` [MDE3–85c, c[Pro-Arg-Phe-Phe-Ser-Ala-Phe-DPro]]: the Kb at wildtype hMC4R [3] is 10 nM; at D189Q hMC4R [4] it was 158 nM; at D189A hMC4R it was 1000 nM; on D189K hMC4R, 501 nM. The “Inverse agonist percent decrease from basal signal” value on wildtype hMC4R [1] is listed as −25%. In addition, the values for the EC50 at D189E hMC4R, on D189N hMC4R and at D189S hMC4R were 11 ± 4 nM, 100 ± 40 nM and 600 ± 400 nM, respectively. In addition, the “Inverse agonist percent decrease from basal activity” value is given as −25% at D189E hMC4R, −20% at D189N hMC4R, −35% on D189Q hMC4R [2] and −25% on D189S hMC4R.
As to “c[Pro-Arg-Phe-Phe-His-Ala-Phe-DPro] [MDE3–119-13c]”, the “Inverse agonist percent decrease from basal signal” value at wildtype hMC4R [1] is recorded as −30%. The “Inverse agonist percent decrease from basal activity” value is reported as −15% on D189E hMC4R and −30% on D189Q hMC4R [2].
For the molecule `C[C@@H]1NC(=O)[C@H](CCC(=O)O)NC(=O)[C@H](Cc2ccccc2)NC(=O)[C@H](Cc2ccccc2)NC(=O)[C@H](CCCNC(=N)N)NC(=O)[C@@H]2CCCN2C(=O)[C@H]2CCCN2C(=O)[C@H](Cc2ccccc2)NC1=O` [MDE3–119-5c, c[Pro-Arg-Phe-Phe-Glu-Ala-Phe-DPro]], the Kb was 100 nM on wildtype hMC4R [3], 2000 nM at D189Q hMC4R [4], > 3160 nM on D189A hMC4R and > 3160 nM at D189K hMC4R. Moreover, the “Inverse agonist percent decrease from basal signal” value on wildtype hMC4R [1] is −35%. Moreover, the results for the EC50 at D189E hMC4R, on D189N hMC4R and on D189Q hMC4R [2] were 1100 nM, 3000 nM and 7000 nM, respectively. Moreover, the “Inverse agonist percent decrease from basal activity” value is recorded as −40% on D189E hMC4R, −5% at D189N hMC4R and −40% on D189Q hMC4R [2].
On to `CC[C@@H]1NC(=O)[C@H](Cc2ccccc2)NC(=O)[C@H](Cc2ccccc2)NC(=O)[C@H](CCCNC(=N)N)NC(=O)[C@@H]2CCCN2C(=O)[C@H]2CCCN2C(=O)[C@H](Cc2ccccc2)NC(=O)[C@H](C)NC1=O` [MDE3–119-2c, c[Pro-Arg-Phe-Phe-Abu-Ala-Phe-DPro]], for which, on wildtype hMC4R [1], the “Inverse agonist percent decrease from basal signal” value is −15%.
On to `C[C@@H]1NC(=O)[C@H](CC(N)=O)NC(=O)[C@H](Cc2ccccc2)NC(=O)[C@H](Cc2ccccc2)NC(=O)[C@H](CCCNC(=N)N)NC(=O)[C@@H]2CCCN2C(=O)[C@H]2CCCN2C(=O)[C@H](Cc2ccccc2)NC1=O` [MDE5–108-10c, c[Pro-Arg-Phe-Phe-Asn-Ala-Phe-DPro]], for which the “Inverse agonist percent decrease from basal signal” value at wildtype hMC4R [1] was −30%. For the same molecule, the “Inverse agonist percent decrease from basal activity” value is on record as −25% on D189E hMC4R, −20% at D189N hMC4R, −45% on D189Q hMC4R [2] and −20% on D189S hMC4R.
Consider `C[C@@H]1NC(=O)[C@@H](CN)NC(=O)[C@H](Cc2ccccc2)NC(=O)[C@H](Cc2ccccc2)NC(=O)[C@H](CCCNC(=N)N)NC(=O)[C@@H]2CCCN2C(=O)[C@H]2CCCN2C(=O)[C@H](Cc2ccccc2)NC1=O` [MDE3–119-7c, c[Pro-Arg-Phe-Phe-DDap-Ala-Phe-DPro]], for which, on wildtype hMC4R [1], the “Inverse agonist percent decrease from basal signal” value is −30%. For the same molecule, the “Inverse agonist percent decrease from basal activity” value is given as −35% at D189E hMC4R, −15% on D189N hMC4R, −40% at D189Q hMC4R [2] and −30% on D189S hMC4R.
Turning to `C[C@@H]1NC(=O)[C@H](C)NC(=O)[C@H](Cc2ccccc2)NC(=O)[C@H](Cc2ccccc2)NC(=O)[C@H](CCCNC(=N)N)NC(=O)[C@@H]2CCCN2C(=O)[C@H]2CCCN2C(=O)[C@H](Cc2ccccc2)NC1=O` [MDE3–154c, c[Pro-Arg-Phe-Phe-Ala-Ala-Phe-DPro]], the Kb on D189Q hMC4R [4] is 251 nM; on D189A hMC4R, 2510 nM; on D189K hMC4R, 794 nM. On wildtype hMC4R [1], the “Inverse agonist percent decrease from basal signal” value is given as −35%. For the same molecule, the EC50 at D189E hMC4R stood at 16 ± 2 nM. The “Inverse agonist percent decrease from basal activity” value at D189E hMC4R and on D189Q hMC4R [2] was −25% throughout.
What is called IC50 is the concentration needed to halve the response being measured. A high value points to weaker potency in that assay. In the case of cyclo(PRFFDAF[dP]) [MDE3–119-4c], the half-inhibitory concentration (IC50) in test [5] amounted to 3600 nM; in test [6], 1300 nM.
The corresponding values for cyclo(PRFFEAF[dP]) [MDE3–119-5c] are 2500 nM and 1400 nM.
